Assays:
rabbits [1] = test: Hypnosis in response to IV infusion in rabbits; type: in vivo, rabbit
Procedure: Induction of hypnosis in rabbits was achieved using 2× HD50 dose of test compound, and immediately after induction, infusion via the tail vein was commenced at half the HD50 dosage per min. the infusion rate was maintained for 20 min or 1 h or 3 h later. The depth of hypnosis was monitored by the magnitude of a withdrawal reflex to intermittent paw pinch provided by a pair of forceps.

[2] = In vitro metabolic half-life in rabbit whole blood; type: in vitro ADME; conditions: male, New Zealand White rabbit (n = 3), 37°C, read-out: Mean t1/2 Value
Procedure: (§1) Human whole blood stability experiments were conducted in whole blood from four human donors (male, 18–25 years). Single experiments were conducted with pooled blood from Sprague-Dawley rats (male, 8 weeks, n = 3), New Zealand White rabbits (male, 8–10 weeks, n = 3), Beagle dogs (male, 2–3 years, n = 3) and Cynomolgus monkeys (male, 3–4 years, n = 3). All the blood samples were provided by Xuzhou Medical College. A 1.35-ml aliquot of blood was warmed at 37°C for 5 min and hypnotic (from a 40 mM stock in DMSO solution) was added to a final concentration of 200 µM. After the specified incubation time, a 150-µl sample was removed and the metabolic reaction was quenched using 150-µl acetonitrile. Zero time-point samples were prepared by adding 150-µl acetonitrile (using a 4 mM stock in DMSO) to 150-µl blood before addition of the hypnotic. The quenched samples were centrifuged, and the supernatant was separated and stored at −20°C until analyzed. Hypnotic concentrations in thawed samples were determined by high-performance liquid chromatography using a 3-µm phenyl 4.6×50-mm C-A-25, ACE column with the UV detector set at 240 nm. […] The lower limit of quantitation of this assay is 3 µM and the accuracy within 15% at 10 µM. The metabolic half-lives were quantified from the incubation time-dependent change in drug concentration.

rabbits [3] = test: Hypnotic potency and recovery after IV bolus in rabbits; type: in vivo, rabbit
Procedure: (§2) All tests were performed during the light period. Groups of mice, rats and rabbits were injected intravenously (lateral tail vein) over 10 s with each dose of test compound, placed in separate boxes to reduce external stimuli and assessed for the loss of righting reflex. Dosing was performed using mg/kg scheme. A set of dose levels was chosen, and depending on whether the loss of righting reflex was observed, extra doses were introduced to provide data for the loss of righting reflex over a narrow dose range to allow potency calculations.
Immediately following the injection, the mice, rats and rabbits were tested for loss of righting reflex. […] Once a loss was observed, the interval between the loss of righting reflex and the return to righting reflex was recorded. […] To compare the duration of LORR of each compound at equipotent doses, groups of mice, rats and rabbits were injected with each compound at 2× HD50 over 10 s.
(§3) Time to walk was the time required after righting before mice and rabbits walked from the center to the periphery of a 30-cm diameter dise.

[4] = In vitro metabolic half-life in human whole blood; type: in vitro ADME; conditions: male, Human (n = 4), 37°C, read-out: Mean t1/2 Value
Procedure: as §1

rabbits [5] = test: Therapeutic index (LD50/HD50) in rabbits; type: in vivo, rabbit
Procedure: The LD50 was determined in mice, rats, and rabbits and the TI was calculated as LD50/HD50.

mice = test: animal or person; type: in vivo; conditions: mice
Procedure: as §2, with “calculations. From the percentage of mice, rats and rabbits in each group showing loss of righting reflex for ≥30 s, a probit analysis (SAS Institute) was performed to obtain an HD50 for each compound with 95% confidence limits.” for “calculations.”
Immediately following the injection, the mice, rats and rabbits were tested for loss of righting reflex. […] Once a loss was observed, the interval between the loss of righting reflex and the return to righting reflex was recorded. The anesthetized animals recovered righting reflexes spontaneously. To compare the duration of LORR of each compound at equipotent doses, groups of mice, rats and rabbits were injected with each compound at 2× HD50 over 10 s.
as §3
The rotarod test was conducted to evaluate the recovery to the motor coordination. Before the LORR test, mice were trained for 2 consecutive days. Trained mice could maintain their balance on rod for more than 2 mins. After the mice could walk from the center to the periphery of a 30-cm diameter dise, they were put on the rotarod. Mice were classified as behavioral recovery when, on being placed on the rod, they could maintain their balance for 20 s. The time to behavioral recovery was the time required after mice walked from the centre to the periphery of a 30-cm diameter disc before they could maintain their balance on rod for 20 s.

[6] = system: GABAA and dopamine D2, D3, H1, 5HT1A, 5HT2A, 5HT2C, 5HTT, α1 and α2 receptors; conditions: 50 µmol, GABAA vs off-target receptors
Procedure: All the new compounds were dissolved in 5% DMSO.
Total binding was determined in the absence of no-specific binding and compounds. Specific binding was determined in the presence of compounds. […]
Rat cerebral cortex was homogenized in 20 volumes of ice-cold Tris-HCl buffer (50 mM, pH 7.7) using an ULTRA TURAX homogeniser, and was then centrifuged at 32000 g for 10 min. […] The final pellet was resuspended in Tris-HCl buffer containing 10 µM Pargyline, 4 mM CaCl2 and 0.1% ascorbic acid. […] The incubation was followed by a rapid vacuum filtration through Whatman GF/B glass filters, and the filtrates were washed twice with 5 mL cold buffer and transferred to scintillation vials. Scintillation fluid (3.0 mL) was added and the radioactivity bound was measured using a Beckman LS 6500 liquid scintillation counter.
Rat cerebral cortex was homogenized in 20 volumes of ice-cold Tris-HCl buffer (50 mM, pH 7.7) using an ULTRA TURAX homogeniser, and centrifuged at 32000 g for 20 min. The resulting pellet was resuspended in the same quantity of the buffer centrifuged for 20 min. […] Scintillation fluid (3.0 mL) was added and the radioactivity bound was measured using a Beckman LS 6500 liquid scintillation counter.
The resulting pellet was resuspended in the same quantity of the buffer centrifuged for 20 min.

## CCOc1cc(CC(=O)OCC(F)(F)F)ccc1OCC(=O)N(CC)CC [Compound 5j, 2,2,2-trifluoroethyl 2-(4-(2-(diethylamino)-2-oxoethoxy)-3-ethoxyphenyl)acetate]
Rabbits [1]; 1-h IV infusion
  duration of LORR after cessation of infusion: 125.8 ± 57.6 s
Rabbits [1]; 3-h IV infusion
  duration of LORR after cessation of infusion: 132.9 ± 56.2 s
Rabbits [1]; 20-min IV infusion
  time to walk after infusion: 15.5 ± 7.55 s
Rabbits [1]; 20-min IV infusion at half the HD50 per min after 2× HD50 induction
  duration of LORR after cessation of infusion: 117.5 ± 47.2 s
[2]
  half-life at 200 µM: 11.6 ± 1.6 min
Rabbits [3]; 2× HD50 dose, mean ± SD
  Duration of LORR: 208.3 ± 19.8 s
  Time to walk: 15.5 ± 7.5 s
Rabbits [3]; IV, 95% confidence limits
  HD50: 6.2 (4.7∼7.0) mg/kg
[4]
  half-life at 200 µM: 25.5 ± 5.6 min
Rabbits [5]
  TI: 21.2
mice; Mus musculus, IV over 10 s, 95% confidence limits, read-out: HD50 (the source's name)
  ED50: 24.6 mg/kg
mice; 2× HD50
  Time to walk: 17.3 ± 5.8 s
mice; 2× HD50, rotarod
  time to behavioral recovery: 28.2 ± 6.4 s
mice; IV 2× HD50, mean ± SD (n = 10)
  Duration of LORR: 59.1 ± 7.4 s
mice; IV, mean ± SD (n = 10)
  Onset time: 5.3 ± 1.2 s
[6]
  binding selectivity profile: selective binding to the GABAA receptor

Reference: article PMC4010497, “Synthesis and Evaluation of Fluorine-Substituted Phenyl Acetate Derivatives as Ultra-Short Recovery Sedative/Hypnotic Agents” (PLoS ONE, 2014)
